Assays:
Type in all cases: in vivo
[1] = system: Abutilon theophrasti (ABUTH); test: Pre-emergence herbicidal action against ABUTH; conditions: Dosage column 320 g/ha (title prints 3200 g/ha); scored visually after about 3 weeks; 100% = plants have died
Method in brief: (§1)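 Dosages of 320 g/ha or less; pre-emergence; WP or EC in aqueous spray, 0.5% additive, 600 l/ha; greenhouse; visual % effect after ~3 wk relative to control pots.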

[2] = system: Alopecurus myosuroides (ALOMY); test: Pre-emergence herbicidal action against ALOMY; conditions: 320 g/ha; scored visually after about 3 weeks; 100% = plants have died
Method in brief: as §1

[3] = system: Amaranthus retroflexus (AMARE); test: Pre-emergence herbicidal action against AMARE; conditions: visual scoring after about 3 weeks vs untreated controls
Method in brief: as §1

[4] = system: Avena fatua (AVEFA); test: Pre-emergence herbicidal action against AVEFA; conditions: 320 g/ha, visual scoring after about 3 weeks vs untreated controls
Method in brief: as §1

[5] = system: Echinochloa crus-galli (ECHCG); test: Pre-emergence herbicidal action against ECHCG
Method in brief: as §1

[6] = system: Matricaria inodora (MATIN); test: Pre-emergence herbicidal action against MATIN
Method in brief: as §1

[7] = system: Pharbitis purpurea (PHBPU); test: Pre-emergence herbicidal action against PHBPU
Method in brief: as §1

[8] = system: Polygonum convolvulus (POLCO); test: Pre-emergence herbicidal action against POLCO
Method in brief: as §1

[9] = system: Setaria viridis (SETVI); test: Pre-emergence herbicidal action against SETVI
Method in brief: as §1

[10] = system: Verconica persica (VERPE); test: Pre-emergence herbicidal action against VERPE; conditions: dosage 320 g/ha
Method in brief: as §1

[11] = system: Viola tricolor (VIOTR); test: Pre-emergence herbicidal action against VIOTR
Method in brief: as §1

[12] = system: Abutilon theophrasti (ABUTH); test: Post-emergence herbicidal action against ABUTH; conditions: 320 g/ha, visual rating about 3 weeks after treatment vs untreated controls (100% = plants have died, 0% = like control plants)
Method in brief: (§2)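 Post-emergence greenhouse spray, one-leaf stage, 600 l/ha water plus 0.5% additive; WP or EC formulations; application rates 320 g/ha or lower. Visual % damage vs untreated controls at ~3 weeks.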

[13] = system: Alopecurus myosuroides (ALOMY); test: Post-emergence herbicidal action against ALOMY; conditions: 320 g/ha, visual rating about 3 weeks after treatment vs untreated controls (100% = plants have died, 0% = like control plants)
Method in brief: as §2

[14] = system: Amaranthus retroflexus (AMARE); test: Post-emergence herbicidal action against AMARE; conditions: 320 g/ha, visual rating about 3 weeks after treatment
Method in brief: as §2

[15] = system: Echinochloa crus-galli (ECHCG); test: Post-emergence herbicidal action against ECHCG
Method in brief: as §2

[16] = system: Matricaria inodora (MATIN); test: Post-emergence herbicidal action against MATIN; conditions: dosage 320 g/ha
Method in brief: as §2

[17] = system: Pharbitis purpurea (PHBPU); test: Post-emergence herbicidal action against PHBPU
Method in brief: as §2

[18] = system: Setaria viridis (SETVI); test: Post-emergence herbicidal action against SETVI
Method in brief: as §2

[19] = system: Verconica persica (VERPE); test: Post-emergence herbicidal action against VERPE
Method in brief: as §2

[20] = system: Viola tricolor (VIOTR); test: Post-emergence herbicidal action against VIOTR; conditions: 320 g/ha
Method in brief: as §2

[21] = system: Oryza sativa (ORYSA); conditions: crop plant compatibility, 80 g/ha, effect in comparison to untreated controls
Method in brief: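 Percent effect on the crop was judged by eye against untreated controls, where 0% means like control and 100% means dead plants. Plants had been sprayed post-emergence at the one-leaf stage and then kept under optimum greenhouse conditions for about 3 weeks.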

O=C(O)COc1nn(-c2nc(F)ccc2F)c(-c2cncc(F)c2)c1Br [Example I-207]
80%: Pre-emergence action against ABUTH [1] | Pre-emergence action against ALOMY [2] | Pre-emergence action against AVEFA in % [4] | Pre-emergence action against SETVI in % ([9]; dosage 80 g/ha) | Post-emergence action against ABUTH in % [12] | Post-emergence action against AMARE in % [14] | Post-emergence action against ECHCG in % ([15]; dosage 80 g/ha) | Post-emergence action against ECHCG in % ([15]; dosage 320 g/ha) | Post-emergence action against MATIN in % [16] | Post-emergence action against PHBPU in % ([17]; dosage 80 g/ha) | Post-emergence action against VERPE in % ([19]; dosage 80 g/ha) | Post-emergence action against VIOTR in % [20]
100%: Pre-emergence action against AMARE in % ([3]; 320 g/ha) | Pre-emergence action against ECHCG in % ([5]; dosage 320 g/ha) | Pre-emergence action against POLCO in % ([8]; dosage 320 g/ha) | Pre-emergence action against SETVI in % ([9]; dosage 320 g/ha) | Pre-emergence action against VIOTR in % ([11]; 320 g/ha, Viola tricolor) | Pre-emergence action against VIOTR in % ([11]; dosage 80 g/ha)
90%: Pre-emergence action against AMARE in % ([3]; 80 g/ha) | Pre-emergence action against ECHCG in % ([5]; dosage 80 g/ha) | Pre-emergence action against MATIN in % ([6]; dosage 80 g/ha) | Pre-emergence action against MATIN in % ([6]; dosage 320 g/ha) | Pre-emergence action against PHBPU in % ([7]; dosage 80 g/ha) | Pre-emergence action against PHBPU in % ([7]; dosage 320 g/ha) | Pre-emergence action against POLCO in % ([8]; dosage 80 g/ha) | Pre-emergence action against VERPE in % [10] | Post-emergence action against ALOMY in % [13] | Post-emergence action against PHBPU in % ([17]; dosage 320 g/ha) | Post-emergence action against SETVI in % ([18]; dosage 80 g/ha) | Post-emergence action against SETVI in % ([18]; dosage 320 g/ha) | Post-emergence action against VERPE in % ([19]; 320 g/ha, VERPE)
10%: Post-emergence action against ORYSA in % [21]
